The text below walks through data of patent US8580962B2, “Spiroheterocyclic compounds as mGlu5 antagonists” (Recordati Ireland Ltd., priority 2010, dated 2013).

The subject of one experiment is conscious rats. The experiment can be described thus: Effect on cystometry in conscious rats (bladder volume capacity). To be noted: for MED (Minimal Effective Dose that induces statistically significant increase of bladder volume capacity): oral administration; for increase of bladder volume capacity: orally. The format is in vivo, rat. How it is done:
Male Sprague-Dawley rats [Crl: CD® (SD) IGS BR] of 300-400 g b.w. supplied by Charles River Italia were used. The animals were housed with free access to food and water and maintained on a forced 12-hour-light/12-hour-dark cycle at 22-24° C. of temperature, except during the experiment. To quantify urodynamic parameters in conscious rats, cystometrographic studies were performed according to the procedure previously reported (Guarneri et al., Pharmacol. Res. 24: 175, 1991).
Briefly, the rats were anaesthetised by intraperitoneal administration of 3 ml/kg of Equithensin solution (pentobarbital 30 mg/kg and chloral hydrate 125 mg/kg) and placed in a supine position. An approximately 10 mm long midline incision was made in the shaved and cleaned abdominal wall. The urinary bladder was gently freed from adhering tissues, emptied and then cannulated via an incision in the bladder body, using a polyethylene cannula (0.58 mm internal diameter, 0.96 mm external diameter) which was permanently sutured with silk thread. The cannula was exteriorised through a subcutaneous tunnel in the retroscapular area, where it was connected to a plastic adapter in order to avoid the risk of removal by the animal. For drug testing, the rats were utilised one day after implantation.
On the day of the experiment, the rats were placed in modified Bollman cages, i.e., restraining cages that were large enough to permit the rats to adopt a normal crouched posture, but narrow enough to prevent turning around. […] The intraluminal-pressure signal during infusion of saline into the bladder (cystometrogram) was continuously recorded on a polygraph (Rectigraph-8K San-ei with BM614/2 amplifier from Biomedica Mangoni) or stored on PC by data acquisition system (PowerLab, Chart 4 software, AD Instruments). From the cystometrogram, bladder volume capacity (BVC) was evaluated. […] Basal BVC value was evaluated as the mean of the values observed in the cystometrograms recorded in an initial period of 30-60 minutes. […] The bladder infusion restarted and changes in BVC were evaluated from the mean values obtained in the cystometrograms observed during 1, 2, and 3 hours after treatment. […]
Each experimental group was composed of 4-11 animals. All data were expressed as mean±standard error. The percent change of BVC versus the basal value, as well as Δ value (difference in ml) of BVC (BVC at time “x” minus basal value), were also evaluated for each rat/time. […]
Statistical analysis on BVC values, as well as on Δ values, was performed by S.A.S./STAT software, version 6.12. The difference between vehicle and active treatment effect was evaluated on Δ values of BVC, whereas the difference between the values at different times versus the basal values was evaluated on original BVC data.

For a further experiment, the target named is T1, mGlu5 receptor (Rattus norvegicus, UniProt P31424).
T1 construct: from tissue; host or cells: rat forebrain (cortex, striatum and hippocampus) membranes, male Sprague Dawley rats
Briefly: Radioligand binding assay at metabotropic glutamate receptor 5 in rat brain. To be noted: [3H]MPEP, rat forebrain membranes; read-out: affinity (Ki) for mGlu5 receptor. As to the method: Radioligand Binding Assay at Metabotropic Glutamate Receptor 5 in Rat Brain.
a) Membrane preparation: male Sprague Dawley rats (200-300 g, Charles River, Italy) were killed by cervical dislocation and the forebrain (cortex, striatum and hippocampus) was homogenized (2×20 sec) in 50 vols of cold 50 mM Tris buffer pH 7.4, using a Politron homogenizer (Kinematica). Homogenates were centrifuged at 48000×g for 15 min, resuspended in 50 vols of the same buffer, incubated at 37° C. for 15 min and centrifuged and resuspended two more times. The final pellets were frozen and stored at −80° C. until use.
b) Binding assay: pellets from rat forebrain were resuspended in 100 vols of 20 mM HEPES, 2 mM MgCl2, 2 mM CaCl2, pH 7.4. The membranes were incubated in a final volume of 1 ml for 60 min at 25° C. with 4 nM [^3H]MPEP in the absence or presence of competing drugs. Non-specific binding was determined in the presence of 10 μM MPEP (Spooren W. et al., Trends Pharmacol Sci. 22, 331-337, 2001). The incubation was stopped by the addition of cold Tris buffer pH 7.4 and rapid filtration through 0.5% polyethyleneimine pretreated Filtermat 1204-401 (Wallac) filters. The filters were then washed with cold buffer and the radioactivity retained on the filters was counted by liquid scintillation spectrometry. […]

T1 sequence (P31424 21-1203): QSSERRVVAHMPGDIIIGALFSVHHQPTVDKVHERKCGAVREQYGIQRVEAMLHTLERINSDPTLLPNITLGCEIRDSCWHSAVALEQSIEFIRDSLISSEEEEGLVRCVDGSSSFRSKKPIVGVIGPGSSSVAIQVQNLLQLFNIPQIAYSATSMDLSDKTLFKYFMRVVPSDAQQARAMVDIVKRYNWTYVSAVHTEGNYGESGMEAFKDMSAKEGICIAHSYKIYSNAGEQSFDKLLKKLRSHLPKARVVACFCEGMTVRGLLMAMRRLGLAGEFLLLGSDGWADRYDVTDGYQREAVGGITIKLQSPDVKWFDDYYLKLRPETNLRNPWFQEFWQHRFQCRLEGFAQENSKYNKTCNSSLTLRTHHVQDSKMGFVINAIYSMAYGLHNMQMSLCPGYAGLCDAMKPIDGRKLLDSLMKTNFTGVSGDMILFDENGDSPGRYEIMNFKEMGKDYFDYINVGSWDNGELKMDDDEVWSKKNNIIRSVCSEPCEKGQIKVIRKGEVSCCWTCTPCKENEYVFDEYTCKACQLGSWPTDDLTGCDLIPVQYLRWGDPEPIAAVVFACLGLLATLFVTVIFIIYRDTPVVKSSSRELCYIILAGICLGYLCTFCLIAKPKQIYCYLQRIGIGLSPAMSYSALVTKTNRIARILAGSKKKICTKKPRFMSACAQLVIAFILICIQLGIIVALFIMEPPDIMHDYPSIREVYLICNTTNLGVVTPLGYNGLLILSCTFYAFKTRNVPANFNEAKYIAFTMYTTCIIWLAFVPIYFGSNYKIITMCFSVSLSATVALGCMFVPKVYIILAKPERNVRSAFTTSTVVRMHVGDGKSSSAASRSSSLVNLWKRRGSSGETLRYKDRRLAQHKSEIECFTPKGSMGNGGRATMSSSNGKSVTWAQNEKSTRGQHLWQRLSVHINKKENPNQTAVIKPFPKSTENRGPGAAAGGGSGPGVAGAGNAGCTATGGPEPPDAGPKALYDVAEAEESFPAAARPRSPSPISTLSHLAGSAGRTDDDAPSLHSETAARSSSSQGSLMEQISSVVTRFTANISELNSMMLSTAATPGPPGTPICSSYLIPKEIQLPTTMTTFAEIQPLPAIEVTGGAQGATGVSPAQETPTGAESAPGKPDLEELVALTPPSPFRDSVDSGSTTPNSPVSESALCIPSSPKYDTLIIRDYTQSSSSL

On to `Clc1cccc(C#CC2=NOC3(CCC4(CCCO4)CC3)C2)c1` (single isomer, unassigned) [Example 78, 3-[(3-Chlorophenyl)ethynyl]-1,9-dioxa-2-azadispiro[4.2.4.2]tetradec-2-ene], for which, in the experiment on conscious rats, the MED (Minimal Effective Dose that induces statistically significant increase of bladder volume capacity) was 3 mg/kg. Regarding `Cc1ccc([N+](=O)[O-])c(N2CCC3(CC2)CC(C#Cc2cccc(Cl)c2)=NO3)n1` [Example 12, 3-[(3-Chlorophenyl)ethynyl]-8-(6-methyl-3-nitropyridin-2-yl)-1-oxa-2,8-diazaspiro[4.5]dec-2-ene], on mGlu5 receptor, the Ki was 3.88 nM.

Take `CON(C)C(=O)N1CCC2(CC(C#Cc3cccc(Cl)c3)=NO2)C1` (stereo not drawn) [Example 110, 7-[2-(3-Chlorophenyl)ethynyl]-N-methoxy-N-methyl-9-oxa-3,8-diazaspiro[4.4]non-7-ene-3-carboxamide]: the Ki at mGlu5 receptor amounted to 1.49 nM. For the molecule `Cc1nc(C#Cc2cccnc2)cs1` [MTEP], the MED (Minimal Effective Dose that induces statistically significant increase of bladder volume capacity) in the experiment with conscious rats was found to be 3 mg/kg. Further, the “increase of bladder volume capacity” value is “only a slight increase” in the experiment with conscious rats (1 mg/kg) and “sustained increase” in the experiment on conscious rats (3 mg/kg, statistically significant from the vehicle group after 3 hours from treatment).
